Tests used:
[1] = test system: Titin, ZASP, Serca1 alternative splicing; experiment: RT-PCR of alternative splicing of other genes misregulated in DM1 after ClC-1 antisense morpholino; type: in vivo, HSA^LR mice; conditions: HSA^LR TA muscle
Text: HSA^LR and WT mice have the same (FVB) inbred strain background. […] FIGS. 25D and 25E show the percentage of ClC-1 splice products that include exon 7a is shown at 3 (D) and 8 (E) weeks following morpholino injection. Mean±s.d.; n=3 per group; **P<0.001; *P=0.035 antisense- versus invert-treated controls; t-test. […] ClC-1 mRNA level is expressed in arbitrary units relative to housekeeping gene RNA polymerase II transcription factor IIB. Mean±s.d.; n=3 per group; *P=0.06 for antisense vs invert-treated control; t-test.
Mice were sacrificed three or eight weeks after morpholino injection. TA muscles were removed and frozen in liquid nitrogen. Total RNA was isolated with TriReagent (Molecular Research Center). cDNA synthesis was primed with oligo dT as described previously (Mankodi, A., et al. (2002) Mol Cell 10:35-44). Assays for alternative splicing of ClC-1 and Titin were described previously (Mankodi, A., et al. (2002) Mol Cell 10:35-44; Lin, X., et al. (2006) Hum Mol Genet 15:2087-2097). Primer sequences were
RT-PCR products (22 cycles) were separated on agarose gels, stained with SYBR green II, and scanned on a laser fluorimager (Molecular Dynamics). Band intensity was quantified using ImageQuant software. Total levels of ClC-1 mRNA were determined by quantitative real-time RT-PCR (Taqman, Applied Biosystems) relative to housekeeping gene RNA polymerase II transcription factor IIB.

[2] = test system: ClC-1 protein; experiment: ClC-1 immunofluorescence after ClC-1 antisense morpholino, HSA^LR TA muscle; type: in vivo, HSA^LR mice; conditions: 3 weeks after treatment, vs invert-treated control
Description: The morpholino was complementary to the 3′ splice site of ClC-1 pre-mRNA. Muscle fibers are outlined by wheat germ agglutinin (wga) and nuclei are highlighted by DAPI. FIGS. 24D and 24 E show brightfield (D) and fluorescence (E) images of a single FDB fiber showing preferential nuclear localization of the antisense morpholino (post injection day 5). […] Bars=20 μM.
(§1) Frozen transverse sections of TA muscle (10 μM) were stained with affinity-purified rabbit polyclonal anti-ClC-1 antibody (1:50; Alpha Diagnostic International) as previously described (Kanadia, R. N., et al. (2006) Proc Natl Acad Sci USA 103:11748-11753). Muscle sections from ClC-1 null mice and WT FVB mice served as negative and positive controls on each slide. Z-plane stacks consisting of 8 images separated by 0.25 μM were captured and deconvolved using Autoquant v9.3 software (Autoquant Imaging). Maximum-projection images were obtained using Metavue software (Universal Imaging Corporation). Exposure time and thresholding were identical for all comparisons of antisense vs. invert controls.

[3] = test system: ClC-1 protein; experiment: ClC-1 immunofluorescence, Mbnl1^ΔE3/ΔE3 mice; type: in vivo; conditions: TA muscle, 3 weeks; listed as antisense morpholino
Description: FIGS. 27A, 27B, 27C, 27D, and 27E show antisense morpholino represses exon 7a inclusion, restores ClC-1 protein expression, and rescues myotonia in Mbnl1^ΔE3/ΔE3 mice. […] Bar=20 μM. […] Mean±s.d.; n=3 per group; **P<0.0001 antisense- versus invert-treated control; ANOVA.
as §1

Substance: antisense 1: morpholino 5′-CCAGGCACGGTCTGCAACAGAGAAG-3′ targeting the 3′ splice site of ClC-1 exon 7a (all phosphorodiamidate morpholino (PMO))
- alternative splicing of Serca1 [1]: nor did it correct the alternative splicing
- alternative splicing of ZASP [1]: nor did it correct the alternative splicing
- alternative splicing of Titin m-line exon 5 ([1]; listed as ClC-1 antisense morpholino): did not correct the misregulated alternative splicing of Titin m-line exon 5
- alternative splicing of Titin m-line exon 5 ([1]; listed as antisense morpholino): nor did it correct the alternative splicing
- sarcolemmal ClC-1 protein ([2]; listed as antisense morpholino): increase of sarcolemmal ClC-1 protein
- sarcolemmal ClC-1 protein ([2]; listed as morpholino AON): increased the level of ClC-1 protein in the sarcolemma
- ClC-1 protein at the sarcolemma (immunofluorescence) [3]: increased the expression of ClC-1 protein at the sarcolemma
